Results: paper PMC10056443, “Derivatives of Amaryllidaceae Alkaloid Ambelline as Selective Inhibitors of Hepatic Stage of Plasmodium berghei Infection In Vitro” (Pharmaceutics, 2023)
Read-outs that look alike come from different tables or passages of the source.

How the values were obtained:
[1] = tested on: resistant Dd2 P. falciparum strain; conditions: cited from earlier work
[2] = tested on: chloroquine-sensitive 3D7 strain; parameters: method as in doi:10.21577/0103-5053.20190061; conditions: cited from earlier work
[3] = tested on: multidrug-resistant K1 strain; parameters: method as in doi:10.21577/0103-5053.20190061; conditions: cited from earlier work
[4] = tested on: hepatic stage of P. berghei; assay: In vitro activity against P. berghei hepatic stages (luciferase-expressing sporozoites in Huh-7 cells, bioluminescence); assay type: cell-based, Plasmodium berghei; parameters: INFECTION (IC50 determination): unit not given here; conditions: for IC50 / activity at 1 µM / activity at 10 µM: Plasmodium berghei; for activity at 1 µM / activity at 10 µM / INFECTION (IC50 determination): DMSO = 100; for activity at 1 µM / activity at 10 µM: read-out: INFECTION Ø screening
Procedure, shortened: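 Huh-7 hepatoma cells pretreated with compounds 1 h, then infected with luciferase-expressing P. berghei sporozoites (1 × 10^4/well, 1:1 ratio) and incubated at 37 °C.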

[5] = Cytotoxicity assessment in vitro (MTT assay); assay type: cell-based; conditions: human
Procedure, shortened: (§1)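 Human HepG2 hepatocellular carcinoma cells (passage 20–25) were treated with compound at 10 μM in triplicate for 24 h at 37 °C, 5% CO2. Viability was then measured by MTT: 3 h incubation, formazan dissolved in DMSO, absorbance read at 570 nm.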

[6] = tested on: HepG2 cells; assay: Cytotoxicity assessment in vitro (MTT assay); assay type: cell-based
Procedure, shortened: as §1

[7] = tested on: Huh-7 cell line; assay: Huh-7 cell confluency by alamarBlue assay during hepatic-stage test; assay type: cell-based
Procedure, shortened: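 Huh-7 human hepatoma cells pre-treated with compound in infection medium 1 h before luciferase-expressing P. berghei sporozoites were added (1:1, 1 × 10^4 per well), then incubated 46 h at 37 °C, 5% CO2. Confluency assessed indirectly by alamarBlue; IC50 from nonlinear-regression fit of normalized dose-response curves.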

[8] = tested on: P. falciparum NF54 ring-stage synchronized cultures; assay: In vitro activity against P. falciparum blood stages (flow cytometry, SYBR green I); assay type: cell-based, Plasmodium falciparum; conditions: Control = 7.76333, 48 h
[9] = tested on: Plasmodium; parameters: method as in PMID 29243039; conditions: tested previously, cited from earlier work
[10] = c = 10 µM, 24 h, MTT, read-out: HepG2 % of cell viability compared to non-treated control (100%)
[11] = Huh-7, mean, unit (Table 1: µM), read-out: Antiplasmodial activity - Ø IC50
[12] = Huh-7, replicate 1, unit (Table 1: µM), read-out: Antiplasmodial activity - IC50 determination, 1. measurement
[13] = Huh-7, replicate 2, unit (Table 1: µM), read-out: Antiplasmodial activity - IC50 determination, 2. measurement
[14] = Huh-7, replicate 3, unit (Table 1: µM), read-out: Antiplasmodial activity - IC50 determination, 3. measurement
[15] = hepatic stage, Huh-7 cells, parasite load 48 h post-infection, read-out: IC50 P. berghei

CC(=O)O[C@@H]1CC=C2CCN3Cc4cc5c(cc4[C@H]1[C@@H]23)OCO5 [compound 5, acetylcaranine]
IC50 [1]: 3.5 ± 0.3 µM

O[C@H]1[C@H]2c3cc4c(cc3CN3CCC(=C[C@@H]1O)[C@H]23)OCO4 [compound 6, lycorine]
IC50 [2]: 2.5 µM | IC50 [3]: 3.1 µM

COc1c2c(cc3c1OCO3)[C@]13C=C[C@H](OC)C[C@H]1N(C2)C[C@@H]3O [compound 28, ambelline]
IC50 [1]: 7.3 ± 0.3 µM | IC50 ([4]; Huh-7, 48 h, read-out: IC50 P. berghei): > 10 µM | activity against P. berghei hepatic stages ([4]; screening at 10 and 1 µM / IC50 determination): neither haemanthamine nor ambelline showed inhibition | viability at 24 h, 10 µM [5, 10]: 50 ± 1% | Ø screening, HepG2 (sheet Graphs) ([6]; c = 10 μM, DMSO = 100, in %): 49.86 | 1. screening of cytotoxic potential, HepG2 cell line ([6]; c = 10 μM, replicate 1, in %): 49.93 | 2. screening of cytotoxic potential, HepG2 cell line ([6]; c = 10 μM, replicate 2, in %): 48.36 | 3. screening of cytotoxic potential, HepG2 cell line ([6]; c = 10 μM, replicate 3, in %): 51.3

COc1c2c(cc3c1OCO3)[C@]13C=C[C@H](OC)C[C@H]1N(C2)C[C@H]3OC(=O)c1cc(C)cc(C)c1 [28h, 11-O-(3,5-Dimethylbenzoyl)ambelline]
CELL CONFLUENCY Ø screening ([7]; at 1 μM, DMSO = 100, in % (unit assumed)): 93.78 | CELL CONFLUENCY Ø screening ([7]; at 10 μM, DMSO = 100, in % (unit assumed)): 54.73 | Ø screening, blood stage parasite load ([8]; at 10 nM): 8.137 | Ø screening, blood stage parasite load ([8]; at 500 nM): 6.735 | Ø screening, blood stage parasite load ([8]; at 100 nm): 6.763 | activity at 1 µM ([4]; Huh-7, 48 h): 8.82% | activity at 10 µM ([4]; Huh-7, 48 h): 0.852% | IC50 [4, 11]: 0.1 µM | IC50 [4, 12]: 0.0992 µM | IC50 [4, 13]: 0.0828 µM | IC50 [4, 14]: 0.118 µM | IC50 [4, 15]: 0.1 ± 0.018 µM | viability at 24 h, 10 µM [5, 10]: 74 ± 13% | Ø screening, HepG2 (sheet Graphs) ([6]; c = 10 μM, DMSO = 100, in %): 74.24 | 1. screening of cytotoxic potential, HepG2 cell line ([6]; c = 10 μM, replicate 1, in %): 61.45 | 2. screening of cytotoxic potential, HepG2 cell line ([6]; c = 10 μM, replicate 2, in %): 88.22 | 3. screening of cytotoxic potential, HepG2 cell line ([6]; c = 10 μM, replicate 3, in %): 73.05

COc1cc(OC)cc(C(=O)O[C@@H]2CN3Cc4c(cc5c(c4OC)OCO5)[C@@]24C=C[C@H](OC)C[C@@H]34)c1 [28m, 11-O-(3,5-Dimethoxybenzoyl)ambelline]
Huh-7 cell viability [7]: cell viability was not affected at antiplasmodial-active concentrations | CELL CONFLUENCY (IC50 determination) ([7]; human, 46 h, 0.0001 µM, pH 7): 108.569 | CELL CONFLUENCY (IC50 determination) ([7]; human, 46 h, 0.001 µM, pH 7): 114.348 | CELL CONFLUENCY (IC50 determination) ([7]; human, 46 h, 0.01 µM, pH 7): 105.456 | CELL CONFLUENCY (IC50 determination) ([7]; human, 46 h, 0.05 µM, pH 7): 107.735 | CELL CONFLUENCY (IC50 determination) ([7]; human, 46 h, 0.1 µM, pH 7): 107.6 | CELL CONFLUENCY (IC50 determination) ([7]; human, 46 h, 0.5 µM, pH 7): 97.6188 | CELL CONFLUENCY Ø screening ([7]; human, 46 h, 1 µM, pH 7): 75.47 | CELL CONFLUENCY Ø screening ([7]; human, 46 h, 10 µM, pH 7): 66.23 | Ø screening, blood stage parasite load ([8]; at 10 nM): 7.527 | Ø screening, blood stage parasite load ([8]; at 500 nM): 6.707 | Ø screening, blood stage parasite load ([8]; at 100 nm): 7.237 | activity at 1 µM ([4]; Huh-7, 48 h): 4.97% | activity at 10 µM ([4]; Huh-7, 48 h): 0.465% | IC50 [4, 11]: 0.0483 µM | IC50 [4, 12]: 0.0413 µM | IC50 [4, 13]: 0.0646 µM | IC50 [4, 14]: 0.0389 µM | IC50 [4, 15]: 0.048 ± 0.014 µM | INFECTION (IC50 determination) ([4]; at 0.0001 µM): 91.9843 | INFECTION (IC50 determination) ([4]; at 0.001 µM): 94.6285 | INFECTION (IC50 determination) ([4]; at 0.01 µM): 82.6124 | INFECTION (IC50 determination) ([4]; at 0.05 µM): 46.9733 | INFECTION (IC50 determination) ([4]; at 0.1 µM): 24.6613 | INFECTION (IC50 determination) ([4]; at 0.5 µM): 8.963 | viability at 24 h, 10 µM [5]: 87 ± 6% | 1. screening of cytotoxic potential, HepG2 cell line ([6]; human, 24 h, 10 µM): 83.99 | 2. screening of cytotoxic potential, HepG2 cell line ([6]; human, 24 h, 10 µM): 94 | 3. screening of cytotoxic potential, HepG2 cell line ([6]; human, 24 h, 10 µM): 84.39 | Ø screening, HepG2 (sheet Graphs) ([6]; human, 24 h, 10 µM): 87.46

COC1C=CC23c4cc5c(cc4CN(CC2O)C3C1)OCO5 (centres unmarked) [compound 29, haemanthamine]
antiplasmodial effect (words) [9]: without notable activity | antiplasmodial effect (words) ([9]; listed as haemanthamine): neither haemanthamine nor ambelline showed inhibition

COc1c2c(cc3c1OCO3)[C@]13C=C[C@H](OC)C[C@H]1N(C2)C[C@H]3OC(=O)c1ccccc1 [28e, 11-O-Benzoylambelline]
CELL CONFLUENCY Ø screening ([7]; human, 46 h, 1 µM, pH 7): 94.15 | CELL CONFLUENCY Ø screening ([7]; human, 46 h, 10 µM, pH 7): 86.56 | Ø screening, blood stage parasite load ([8]; at 10 nM): 7.597 | Ø screening, blood stage parasite load ([8]; at 500 nM): 7.383 | Ø screening, blood stage parasite load ([8]; at 100 nm): 7.907 | activity at 1 µM ([4]; Huh-7, 48 h): 45.7% | activity at 10 µM ([4]; Huh-7, 48 h): 2.18% | IC50 [4, 11]: 0.726 µM | IC50 [4, 12]: 0.662 µM | IC50 [4, 13]: 0.646 µM | IC50 [4, 14]: 0.871 µM | IC50 [4, 15]: 0.726 ± 0.126 µM | viability at 24 h, 10 µM [5]: 95 ± 7% | 1. screening of cytotoxic potential, HepG2 cell line ([6]; human, 24 h, 10 µM): 98.77 | 2. screening of cytotoxic potential, HepG2 cell line ([6]; human, 24 h, 10 µM): 99.24 | 3. screening of cytotoxic potential, HepG2 cell line ([6]; human, 24 h, 10 µM): 87.15 | Ø screening, HepG2 (sheet Graphs) ([6]; human, 24 h, 10 µM): 95.05
